Values belong to the molecule of their own block, whether it stands above or below them. Activity calls are given as the source filed them.
Columns and labels:
[1] = molecular target: T1, G-protein coupled receptor 35 (Homo sapiens, UniProt Q9HC97); experiment: inhibition of zaprinast-stimulated GPR35 beta-arrestin translocation – imaging, U2OS, beta-arrestin-GFP, zaprinast agonist, primary screen (AID 2058); assay type: functional;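 also: antagonist potency meaning inhibition of agonist-induced arrestin redistribution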
T1 sequence (Q9HC97 whole entry): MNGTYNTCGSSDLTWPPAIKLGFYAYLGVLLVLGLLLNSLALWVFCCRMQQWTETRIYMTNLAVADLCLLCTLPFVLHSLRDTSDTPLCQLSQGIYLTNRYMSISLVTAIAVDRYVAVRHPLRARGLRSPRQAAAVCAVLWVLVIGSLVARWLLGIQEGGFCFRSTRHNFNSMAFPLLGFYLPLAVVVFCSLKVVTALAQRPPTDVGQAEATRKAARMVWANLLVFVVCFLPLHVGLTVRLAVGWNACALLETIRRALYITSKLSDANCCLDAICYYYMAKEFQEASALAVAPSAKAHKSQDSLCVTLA

[2] = molecular target: T1, G-protein coupled receptor 35; experiment: SAR Analysis for the identification of Selective Antagonists of ERK1/2 Activity in GPR35-Overexpressing U2OS Cells. [Related pubchem assays: 2079, 2058 ]; assay type: functional, cell-based
[3] = molecular target: G-protein coupled receptor 55 (Homo sapiens, UniProt Q9Y2T6); experiment: blockers of GPR55 signalling, imaged – imaging, image-based, counter-screen for GPR35 antagonist project, SAR follow-up (AID 2397); assay type: functional
Sequence of G-protein coupled receptor 55 (Q9Y2T6 whole entry): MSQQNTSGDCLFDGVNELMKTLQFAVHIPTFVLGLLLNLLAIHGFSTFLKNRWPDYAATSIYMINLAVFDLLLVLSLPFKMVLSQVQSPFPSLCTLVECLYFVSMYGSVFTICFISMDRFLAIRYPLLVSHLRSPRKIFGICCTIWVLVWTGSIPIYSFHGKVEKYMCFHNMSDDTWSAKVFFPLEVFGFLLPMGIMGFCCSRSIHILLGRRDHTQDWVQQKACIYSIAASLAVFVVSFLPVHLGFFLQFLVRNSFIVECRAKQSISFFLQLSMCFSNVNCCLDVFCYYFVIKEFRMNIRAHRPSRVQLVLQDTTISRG

Mu-type opioid receptor = Mu-type opioid receptor (Homo sapiens, UniProt P35372); experiment: SAR Analysis of Agonists of the MOR Receptor using an Image-Based Assay - Set 3. [Related pubchem assays (depositor defined):AID1777, AID1785, AID1786, AID1966, AID2133, AID2136, AID2284, AID2285, AID2352]; assay type: functional
Sequence of Mu-type opioid receptor (P35372 whole entry): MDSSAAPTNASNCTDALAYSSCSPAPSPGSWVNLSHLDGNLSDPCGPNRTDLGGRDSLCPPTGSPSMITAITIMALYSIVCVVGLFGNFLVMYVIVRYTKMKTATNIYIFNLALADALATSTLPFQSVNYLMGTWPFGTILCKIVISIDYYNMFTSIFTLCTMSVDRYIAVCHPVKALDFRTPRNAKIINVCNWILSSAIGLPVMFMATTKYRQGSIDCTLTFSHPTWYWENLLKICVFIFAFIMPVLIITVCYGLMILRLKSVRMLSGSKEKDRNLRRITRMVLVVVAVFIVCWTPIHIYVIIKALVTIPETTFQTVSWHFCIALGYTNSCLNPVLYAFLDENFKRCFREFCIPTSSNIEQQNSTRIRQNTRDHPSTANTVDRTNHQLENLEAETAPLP

[4] = molecular target: T2, Kappa-type opioid receptor (Homo sapiens, UniProt P41145); experiment: kappa opioid receptor activation by imaging – image-based, set 3, SAR follow-up (AID 488833); assay type: functional
T2 sequence (P41145 whole entry): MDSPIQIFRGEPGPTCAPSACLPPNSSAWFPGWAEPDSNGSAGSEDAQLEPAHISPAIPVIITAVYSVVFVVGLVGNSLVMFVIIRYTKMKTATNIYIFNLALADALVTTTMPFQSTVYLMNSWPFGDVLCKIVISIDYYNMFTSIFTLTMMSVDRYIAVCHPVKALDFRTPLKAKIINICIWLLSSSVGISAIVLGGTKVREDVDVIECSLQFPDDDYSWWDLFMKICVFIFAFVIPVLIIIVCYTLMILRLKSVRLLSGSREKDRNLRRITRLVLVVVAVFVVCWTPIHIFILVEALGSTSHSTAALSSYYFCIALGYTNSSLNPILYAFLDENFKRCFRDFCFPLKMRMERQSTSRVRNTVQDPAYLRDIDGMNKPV

[5] = molecular target: Delta-type opioid receptor (Homo sapiens, UniProt P41143); experiment: SAR Analysis of Agonists of the DOR Receptor using an Image-Based Assay - Set 3. [Related pubchem assays (depositor defined):AID1777, AID1786]; assay type: functional
Sequence of Delta-type opioid receptor (P41143 whole entry): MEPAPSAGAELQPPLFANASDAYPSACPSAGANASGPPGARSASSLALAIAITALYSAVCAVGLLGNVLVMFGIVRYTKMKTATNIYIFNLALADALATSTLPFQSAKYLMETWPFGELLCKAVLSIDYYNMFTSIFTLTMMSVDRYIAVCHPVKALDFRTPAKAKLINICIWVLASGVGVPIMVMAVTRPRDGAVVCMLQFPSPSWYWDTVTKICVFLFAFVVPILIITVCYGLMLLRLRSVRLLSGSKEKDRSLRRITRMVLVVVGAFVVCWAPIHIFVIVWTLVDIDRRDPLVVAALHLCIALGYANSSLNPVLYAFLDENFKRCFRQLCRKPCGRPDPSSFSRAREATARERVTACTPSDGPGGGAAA

[6] = molecular target: T2, Kappa-type opioid receptor; experiment: SAR analysis of small molecule agonists of the kappa opioid receptor via a luminescent beta-arrestin assay - Set 3. [Related pubchem assays (depositor defined):AID1777, AID1785, AID1786, AID1966, AID2133, AID2136, AID2284, AID2500]; assay type: functional
[7] = molecular target: Nuclear receptor ROR-alpha (Homo sapiens, UniProt P35398); experiment: LXR, FXR and VP16 reporter activity, cell-based, luciferase reporter, ROR modulator project, late-stage follow-up, panel member RORA (AID 2117)
Sequence of Nuclear receptor ROR-alpha (P35398 whole entry): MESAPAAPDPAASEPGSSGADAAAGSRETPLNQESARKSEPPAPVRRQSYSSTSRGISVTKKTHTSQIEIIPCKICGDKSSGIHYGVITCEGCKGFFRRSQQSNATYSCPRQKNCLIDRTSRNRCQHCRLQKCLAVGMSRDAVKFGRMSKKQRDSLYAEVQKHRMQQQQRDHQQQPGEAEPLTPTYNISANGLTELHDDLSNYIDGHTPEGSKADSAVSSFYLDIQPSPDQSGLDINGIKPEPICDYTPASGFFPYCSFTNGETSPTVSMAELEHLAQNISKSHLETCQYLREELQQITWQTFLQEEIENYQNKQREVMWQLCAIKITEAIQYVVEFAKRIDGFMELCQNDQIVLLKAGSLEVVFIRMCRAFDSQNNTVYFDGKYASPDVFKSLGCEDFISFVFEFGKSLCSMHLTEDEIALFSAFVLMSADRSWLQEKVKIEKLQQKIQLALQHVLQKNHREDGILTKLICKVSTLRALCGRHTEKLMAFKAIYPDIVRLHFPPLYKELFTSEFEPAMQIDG

[8] = molecular target: Nuclear receptor ROR-gamma (Homo sapiens, UniProt P51449); experiment: LXR, FXR and VP16 reporter activity, cell-based, luciferase reporter, ROR modulator project, late-stage follow-up, panel member RORG (AID 2117)
Sequence of Nuclear receptor ROR-gamma (P51449 whole entry): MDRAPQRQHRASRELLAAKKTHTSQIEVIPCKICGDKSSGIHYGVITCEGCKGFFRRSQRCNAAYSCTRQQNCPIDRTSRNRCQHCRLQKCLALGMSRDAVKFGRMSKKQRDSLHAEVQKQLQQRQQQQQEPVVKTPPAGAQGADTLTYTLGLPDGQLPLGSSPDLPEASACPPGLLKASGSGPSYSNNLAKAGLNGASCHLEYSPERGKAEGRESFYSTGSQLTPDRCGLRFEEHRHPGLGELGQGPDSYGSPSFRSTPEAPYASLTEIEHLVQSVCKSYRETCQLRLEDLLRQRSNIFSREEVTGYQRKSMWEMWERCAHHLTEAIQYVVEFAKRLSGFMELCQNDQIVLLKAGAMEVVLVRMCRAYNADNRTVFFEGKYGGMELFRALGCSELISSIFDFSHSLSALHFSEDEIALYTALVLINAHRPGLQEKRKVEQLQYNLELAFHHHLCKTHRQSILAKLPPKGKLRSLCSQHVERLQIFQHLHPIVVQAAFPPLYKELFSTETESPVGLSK

[9] = molecular target: Lysine-specific demethylase 4A (Homo sapiens, UniProt O75164); experiment: inhibition of JMJD2A H3K9me3 demethylation – biochemical, DELFIA europium, cherry-picked samples, selectivity assay for GASC-1 inhibitor project, dose response (AID 488840)
Sequence of Lysine-specific demethylase 4A (O75164 whole entry): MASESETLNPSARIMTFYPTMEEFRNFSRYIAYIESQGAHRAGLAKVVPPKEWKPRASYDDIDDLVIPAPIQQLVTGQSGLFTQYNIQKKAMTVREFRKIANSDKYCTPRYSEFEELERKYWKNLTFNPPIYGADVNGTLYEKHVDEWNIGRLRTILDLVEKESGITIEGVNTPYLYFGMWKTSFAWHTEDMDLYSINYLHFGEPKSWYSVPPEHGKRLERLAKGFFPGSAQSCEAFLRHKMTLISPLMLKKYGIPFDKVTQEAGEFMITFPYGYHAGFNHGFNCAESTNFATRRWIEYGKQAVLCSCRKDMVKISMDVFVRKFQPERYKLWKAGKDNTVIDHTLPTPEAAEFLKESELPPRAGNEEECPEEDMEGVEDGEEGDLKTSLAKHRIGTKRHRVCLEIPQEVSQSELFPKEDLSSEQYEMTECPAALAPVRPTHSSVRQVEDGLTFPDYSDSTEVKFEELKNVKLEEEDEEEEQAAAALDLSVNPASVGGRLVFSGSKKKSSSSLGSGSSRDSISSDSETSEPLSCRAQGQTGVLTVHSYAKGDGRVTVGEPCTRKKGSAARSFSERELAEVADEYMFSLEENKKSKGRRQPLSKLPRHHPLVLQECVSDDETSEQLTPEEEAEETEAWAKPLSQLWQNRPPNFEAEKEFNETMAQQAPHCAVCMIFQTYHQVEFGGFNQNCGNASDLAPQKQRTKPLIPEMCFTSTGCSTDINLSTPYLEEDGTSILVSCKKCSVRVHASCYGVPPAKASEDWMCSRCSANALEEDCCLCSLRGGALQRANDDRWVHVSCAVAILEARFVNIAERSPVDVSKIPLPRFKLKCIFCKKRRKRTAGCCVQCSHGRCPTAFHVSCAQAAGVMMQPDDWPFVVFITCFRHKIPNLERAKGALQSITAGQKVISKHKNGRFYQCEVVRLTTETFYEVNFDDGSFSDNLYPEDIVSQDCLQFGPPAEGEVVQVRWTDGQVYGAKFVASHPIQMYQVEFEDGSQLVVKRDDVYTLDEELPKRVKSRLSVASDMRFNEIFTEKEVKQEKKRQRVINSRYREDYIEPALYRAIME

fMet-Leu-Phe receptor = molecular target: T3, fMet-Leu-Phe receptor (Homo sapiens, UniProt P21462); experiment: formyl peptide receptor binders – dose response (AID 519); assay type: functional
T3 sequence (P21462 whole entry): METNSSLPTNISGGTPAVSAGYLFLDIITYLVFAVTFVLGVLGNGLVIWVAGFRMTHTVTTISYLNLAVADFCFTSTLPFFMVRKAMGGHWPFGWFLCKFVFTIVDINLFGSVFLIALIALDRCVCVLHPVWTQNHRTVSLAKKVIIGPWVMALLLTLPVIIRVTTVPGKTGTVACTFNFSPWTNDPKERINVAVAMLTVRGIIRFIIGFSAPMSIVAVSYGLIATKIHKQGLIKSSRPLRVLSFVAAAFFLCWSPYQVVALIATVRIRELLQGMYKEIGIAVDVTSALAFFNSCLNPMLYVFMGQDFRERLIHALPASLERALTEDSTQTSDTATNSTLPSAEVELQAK

[10] = molecular target: T4, Lysine-specific demethylase 4C (Homo sapiens, UniProt Q9H3R0); experiment: inhibition of JMJD2C H3K9me3 demethylation – biochemical, DELFIA europium, cherry-picked samples, dose response (AID 488835); assay type: functional
T4 sequence (Q9H3R0 whole entry): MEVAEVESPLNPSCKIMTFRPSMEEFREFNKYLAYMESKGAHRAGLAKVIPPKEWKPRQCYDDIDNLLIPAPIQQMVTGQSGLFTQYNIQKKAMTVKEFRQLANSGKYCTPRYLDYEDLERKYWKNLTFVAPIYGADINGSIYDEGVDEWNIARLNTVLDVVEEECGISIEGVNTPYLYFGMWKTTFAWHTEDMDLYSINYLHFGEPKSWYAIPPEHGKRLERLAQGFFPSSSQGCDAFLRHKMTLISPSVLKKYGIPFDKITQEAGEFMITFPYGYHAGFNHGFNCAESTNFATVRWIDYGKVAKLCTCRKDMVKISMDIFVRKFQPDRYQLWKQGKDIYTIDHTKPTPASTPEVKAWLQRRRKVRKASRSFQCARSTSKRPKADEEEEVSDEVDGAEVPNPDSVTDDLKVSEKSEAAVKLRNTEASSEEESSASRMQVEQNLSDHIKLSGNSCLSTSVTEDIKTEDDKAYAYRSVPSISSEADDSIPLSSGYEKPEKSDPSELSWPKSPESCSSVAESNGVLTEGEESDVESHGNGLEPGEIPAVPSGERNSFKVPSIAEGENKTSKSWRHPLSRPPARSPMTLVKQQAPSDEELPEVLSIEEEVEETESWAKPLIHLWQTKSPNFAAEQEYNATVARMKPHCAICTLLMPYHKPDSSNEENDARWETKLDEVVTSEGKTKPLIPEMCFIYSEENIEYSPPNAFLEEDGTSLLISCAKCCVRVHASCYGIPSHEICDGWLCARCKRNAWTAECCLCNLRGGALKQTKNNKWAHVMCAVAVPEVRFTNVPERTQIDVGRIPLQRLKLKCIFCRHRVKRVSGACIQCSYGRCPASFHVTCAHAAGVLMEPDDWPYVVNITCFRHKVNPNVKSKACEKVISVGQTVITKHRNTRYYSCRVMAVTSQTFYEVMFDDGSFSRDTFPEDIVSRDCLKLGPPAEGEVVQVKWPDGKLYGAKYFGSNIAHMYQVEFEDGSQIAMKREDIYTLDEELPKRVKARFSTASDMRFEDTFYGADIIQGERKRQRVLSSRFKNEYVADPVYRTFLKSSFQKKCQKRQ

IC50 [1]: 1.2 µM (active)
IC50 [2]: > 32 µM (not active)
IC50 [3]: > 32 µM (inactive)
Structure (SMILES): Cc1nc(N2CCC(C)CC2)c2c(C)c(C(=O)Nc3ccc4c(c3)OCCO4)sc2n1

EC50 (Mu-type opioid receptor): > 32 µM (inactive)
EC50 [4]: 20.9 µM (inactive)
EC50 [5]: > 32 µM (inactive)
EC50 [6]: 18 µM (inactive)
Structure (SMILES): Fc1cccc(F)c1CSc1nnc(-c2ccccn2)n1Cc1cccs1

IC50 [7]: 7.75 µM (active)
IC50 [8]: 1.94 µM (active)
Structure (SMILES): O=S(=O)(Nc1ccc(C(O)(C(F)(F)F)C(F)(F)F)cc1)c1cccc2ccccc12

AC50 [9]: 6.55 µM (active)
Ki (fMet-Leu-Phe receptor): > 66.7 µM (inactive)
AC50 [10]: 1.09 µM (active)
Structure (SMILES): O=c1cc(N2CCc3ccccc32)[nH]c(=O)n1Cc1ccc(F)cc1
